Measured values: US12540131B2 (Merck Sharp & Dohme LLC, priority 2019, dated 2026)

Target: GST tagged truncated human mutant G2019S LRRK2 (Homo sapiens (Human), UniProt Q5S007, G2019S)
Experiment: LRRK2 Km ATP LanthaScreen Assay
Assay type: biochemical
Conditions: G2019S LRRK2, 134 μM ATP (Km ATP), mean values; for IC50: read-out: LRRK2 pIC50 (converted)
Method in brief: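 Enzyme (GST-tagged, truncated) was preincubated with compound for 15 min at RT in 50 mM Tris pH 8.5, 10 mM MgCl2, 0.01% Brij-35, 1 mM EGTA, 2 mM DTT and 0.05 mM orthovanadate. Fluorescein-LRRKtide and 134 μM ATP (Km) were then added for 90 min. EDTA and Tb-anti-pERM antibody stopped the reaction; the TR-FRET 520/495 ratio gave 4-parameter IC50s, reported as mean pIC50.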

GST tagged truncated human mutant G2019S LRRK2, sequence (Q5S007 970-2527 G2019S): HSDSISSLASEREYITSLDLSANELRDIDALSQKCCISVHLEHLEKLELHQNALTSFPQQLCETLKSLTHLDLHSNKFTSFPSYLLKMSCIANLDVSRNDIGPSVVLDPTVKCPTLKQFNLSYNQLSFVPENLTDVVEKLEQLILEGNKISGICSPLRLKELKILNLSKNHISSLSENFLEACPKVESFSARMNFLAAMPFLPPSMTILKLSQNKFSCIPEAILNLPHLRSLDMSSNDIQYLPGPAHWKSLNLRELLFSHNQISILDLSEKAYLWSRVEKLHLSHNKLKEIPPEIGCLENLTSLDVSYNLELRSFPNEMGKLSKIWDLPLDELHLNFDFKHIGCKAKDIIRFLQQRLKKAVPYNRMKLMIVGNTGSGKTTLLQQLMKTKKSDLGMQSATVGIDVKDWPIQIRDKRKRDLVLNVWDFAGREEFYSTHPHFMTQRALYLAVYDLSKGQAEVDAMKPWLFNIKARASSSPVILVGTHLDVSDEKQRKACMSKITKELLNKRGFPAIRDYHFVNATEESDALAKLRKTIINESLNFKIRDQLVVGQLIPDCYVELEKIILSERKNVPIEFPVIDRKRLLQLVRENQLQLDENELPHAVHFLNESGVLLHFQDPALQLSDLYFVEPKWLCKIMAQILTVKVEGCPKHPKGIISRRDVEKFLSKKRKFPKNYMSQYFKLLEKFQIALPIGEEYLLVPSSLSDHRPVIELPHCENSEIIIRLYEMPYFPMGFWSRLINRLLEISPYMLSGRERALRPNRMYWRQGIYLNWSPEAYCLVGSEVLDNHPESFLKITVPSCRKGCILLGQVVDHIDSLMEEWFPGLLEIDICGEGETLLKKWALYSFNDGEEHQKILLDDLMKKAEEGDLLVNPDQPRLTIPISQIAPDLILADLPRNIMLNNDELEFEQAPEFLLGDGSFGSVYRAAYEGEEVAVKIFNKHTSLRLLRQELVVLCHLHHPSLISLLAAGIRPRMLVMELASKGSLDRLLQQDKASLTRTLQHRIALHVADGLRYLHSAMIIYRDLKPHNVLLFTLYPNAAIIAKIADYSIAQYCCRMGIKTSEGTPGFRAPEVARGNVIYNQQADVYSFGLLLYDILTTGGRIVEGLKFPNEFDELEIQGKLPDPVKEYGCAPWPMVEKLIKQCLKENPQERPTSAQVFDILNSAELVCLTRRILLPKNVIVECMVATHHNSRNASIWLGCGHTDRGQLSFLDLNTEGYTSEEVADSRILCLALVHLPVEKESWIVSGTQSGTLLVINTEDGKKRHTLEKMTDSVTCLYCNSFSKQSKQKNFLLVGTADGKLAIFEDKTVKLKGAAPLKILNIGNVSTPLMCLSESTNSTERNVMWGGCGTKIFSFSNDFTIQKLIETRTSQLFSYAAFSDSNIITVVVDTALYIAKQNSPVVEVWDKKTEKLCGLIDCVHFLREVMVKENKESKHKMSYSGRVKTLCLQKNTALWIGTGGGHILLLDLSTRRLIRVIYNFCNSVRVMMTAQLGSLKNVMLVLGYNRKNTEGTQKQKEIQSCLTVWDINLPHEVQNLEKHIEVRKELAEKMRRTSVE

Row | Structure (SMILES) | LRRK2 pIC50 | IC50 [nM]
1 | Cc1c(Nc2ncc3cc(Cl)c(C4CCN(C(=O)[C@H](C)O)C4)cc3n2)cnn1C1CC1 (single isomer, unassigned) [Ex-4.190, (2S)(3S) or (2S)(3R) 1-(3-{6-chloro-2-[(1-cyclopropyl-5-methyl-1H-pyrazol-4-yl)amino]quinazolin-7-yl}pyrrolidin-1-yl)-2-hydroxypropan-1-one] | 8.73 | –
2 | Cc1c(Nc2ncc3cc(Cl)c(C4CCN(CC(O)CC(F)(F)F)CC4)cc3n2)cnn1C1CC1 (single isomer, unassigned) [Ex-4.191, (S) or (R) 1-(4-{6-chloro-2-[(1-cyclopropyl-5-methyl-1H-pyrazol-4-yl)amino]quinazolin-7-yl}piperidin-1-yl)-4,4,4-trifluorobutan-2-ol] | – | < 0.631
3 | Cc1c(Nc2ncc3cc(Cl)c(C4CCN(CC(O)CC(F)(F)F)CC4)cc3n2)cnn1C1CC1 (single isomer, unassigned) [Ex-4.192, (S) or (R) 1-(4-{6-chloro-2-[(1-cyclopropyl-5-methyl-1H-pyrazol-4-yl)amino]quinazolin-7-yl}piperidin-1-yl)-4,4,4-trifluorobutan-2-ol] | – | 1.74
4 | Cc1c(Nc2ncc3cc(Cl)c(C4CCN(CC(O)Cc5ccccc5)CC4)cc3n2)cnn1C1CC1 (single isomer, unassigned) [Ex-4.218, (S) or (R) 1-(4-{6-chloro-2-[(1-cyclopropyl-5-methyl-1H-pyrazol-4-yl)amino]quinazolin-7-yl}piperidin-1-yl)-3-phenylpropan-2-ol] | – | 13.8
5 | Cc1c(Nc2ncc3cc(Cl)c(C4CCN(CC(O)Cc5ccccc5)CC4)cc3n2)cnn1C1CC1 (single isomer, unassigned) [Ex-4.219, (S) or (R) 1-(4-{6-chloro-2-[(1-cyclopropyl-5-methyl-1H-pyrazol-4-yl)amino]quinazolin-7-yl}piperidin-1-yl)-3-phenylpropan-2-ol] | – | 4.68
6 | Cc1c(Nc2ncc3cc(Cl)c(C4CCN(CC(O)c5ccc(C#N)cc5)CC4)cc3n2)cnn1C1CC1 (single isomer, unassigned) [Ex-4.220, (S) or (R) 4-[2-(4-{6-chloro-2-[(1-cyclopropyl-5-methyl-1H-pyrazol-4-yl)amino]quinazolin-7-yl}piperidin-1-yl)-1-hydroxyethyl]benzonitrile] | – | 6.17
7 | Cc1c(Nc2ncc3cc(Cl)c(C4CCN(CC(O)CN5CCOC5=O)CC4)cc3n2)cnn1C1CC1 (single isomer, unassigned) [Ex-4.221, (S) or (R) 3-[3-(4-{6-chloro-2-[(1-cyclopropyl-5-methyl-1H-pyrazol-4-yl)amino]quinazolin-7-yl}piperidin-1-yl)-2-hydroxypropyl]-1,3-oxazolidin-2-one] | – | < 0.631
8 | Cc1c(Nc2ncc3cc(Cl)c(C4CCN(CC(C)(O)c5ccccc5)CC4)cc3n2)cnn1C1CC1 (single isomer, unassigned) [Ex-4.223, (S) or (R) 1-(4-{6-chloro-2-[(1-cyclopropyl-5-methyl-1H-pyrazol-4-yl)amino]quinazolin-7-yl}piperidin-1-yl)-2-phenylpropan-2-ol] | – | 2.45
9 | Cc1c(Nc2ncc3cc(Cl)c(C4CCN(CC(O)c5ccc(Cl)cc5)CC4)cc3n2)cnn1C1CC1 (single isomer, unassigned) [Ex-4.224, (S) or (R) 2-(4-{6-chloro-2-[(1-cyclopropyl-5-methyl-1H-pyrazol-4-yl)amino]quinazolin-7-yl}piperidin-1-yl)-1-(4-chlorophenyl)ethan-1-ol] | – | 13.8
10 | Cc1c(Nc2ncc3cc(Cl)c(C4CCN(CC(O)c5ccc(Cl)cc5)CC4)cc3n2)cnn1C1CC1 (single isomer, unassigned) [Ex-4.225, (S) or (R) 2-(4-{6-chloro-2-[(1-cyclopropyl-5-methyl-1H-pyrazol-4-yl)amino]quinazolin-7-yl}piperidin-1-yl)-1-(4-chlorophenyl)ethan-1-ol] | – | 21.4
11 | Cc1c(Nc2ncc3cc(Cl)c(C4CCN(CC(O)c5ccc(C#N)cc5)CC4)cc3n2)cnn1C1CC1 (single isomer, unassigned) [Ex-4.226, (S) or (R) 4-[2-(4-{6-chloro-2-[(1-cyclopropyl-5-methyl-1H-pyrazol-4-yl)amino]quinazolin-7-yl}piperidin-1-yl)-1-hydroxyethyl]benzonitrile] | – | 3.72
12 | Cc1c(Nc2ncc3cc(Cl)c(C4CCN(CC(O)CN5CCOCC5)CC4)cc3n2)cnn1C1CC1 (single isomer, unassigned) [Ex-4.227, (S) or (R) 1-(4-{6-chloro-2-[(1-cyclopropyl-5-methyl-1H-pyrazol-4-yl)amino]quinazolin-7-yl}piperidin-1-yl)-3-(morpholin-4-yl)propan-2-ol] | – | < 0.631
13 | Cc1c(Nc2ncc3cc(Cl)c(C4CCN(CC(O)CN5CCOCC5)CC4)cc3n2)cnn1C1CC1 (single isomer, unassigned) [Ex-4.228, (S) or (R) 1-(4-{6-chloro-2-[(1-cyclopropyl-5-methyl-1H-pyrazol-4-yl)amino]quinazolin-7-yl}piperidin-1-yl)-3-(morpholin-4-yl)propan-2-ol] | – | 1.55
14 | C[C@@]1(N2CC[C@@H](c3cc4nc(Nc5cnn(C6CC6(F)F)c5Cl)ncc4cc3Cl)[C@H](F)C2)COC[C@@H]1O (single isomer, unassigned) [Ex-4.230, (R)(3S,4S)(3S,4S) or (R)(3S,4S)(3R,4R) or (R)(3R,4R)(3S,4S) or (R)(3R,4R)(3R,4R) or (S)(3S,4S)(3S,4S) or (S)(3S,4S)(3R,4R) or (S)(3R,4R)(3S,4S) or (S)(3R,4R)(3R,4R) 4-(4-(6-chloro-2-((5-chloro-1-(2,2-difluorocyclopropyl)-1H-pyrazol-4-yl)amino)quinazolin-7-yl)-3-fluoropiperidin-1-yl)-4-methyltetrahydrofuran-3-ol] | 9.13 | –
15 | O[C@H]1COC[C@H]1N1CC[C@@H](c2cc3nc(Nc4cnn(C56CC(F)(C5)C6)c4Cl)ncc3cc2Cl)[C@H](F)C1 (single isomer, unassigned) [Ex-4.231, (3S,4S)(3S,4S) or (3S,4S)(3R,4R) or (3R,4R)(3S,4S) or (3R,4R)(3R,4R) 4-[4-(6-chloro-2-{[5-chloro-1-(3-fluorobicyclo[1.1.1]pentan-1-yl)-1H-pyrazol-4-yl]amino}quinazolin-7-yl)-3-fluoropiperidin-1-yl]oxolan-3-ol] | >9.20 | –
16 | Cc1cc2cnc(Nc3cnn(C45CC(F)(C4)C5)c3Cl)nc2cc1[C@@H]1CCN([C@@H]2COC[C@@H]2O)C[C@H]1F (single isomer, unassigned) [Ex-4.232, (3S,4S)(3S,4S) or (3S,4S)(3R,4R) or (3R,4R)(3S,4S) or (3R,4R)(3R,4R) 4-[4-(2-{[5-chloro-1-(3-fluorobicyclo[1.1.1]pentan-1-yl)-1H-pyrazol-4-yl]amino}-6-methylquinazolin-7-yl)-3-fluoropiperidin-1-yl]oxolan-3-ol] | >9.20 | –
17 | Cn1ncc(Nc2ncc3cc(Cl)c([C@@H]4CCN([C@]5(C)COC[C@@H]5O)C[C@H]4F)cc3n2)c1Cl (single isomer, unassigned) [Ex-4.233, (3S,4S)(3S,4S) or (3S,4S)(3R,4R) or (3R,4R)(3S,4S) or (3R,4R)(3R,4R) 4-(4-{6-chloro-2-[(5-chloro-1-methyl-1H-pyrazol-4-yl)amino]quinazolin-7-yl}-3-fluoropiperidin-1-yl)-4-methyloxolan-3-ol] | >9.20 | –
18 | Cn1ncc(Nc2ncc3cc(Cl)c([C@@H]4CCN([C@@]5(C)COC[C@H]5O)C[C@H]4F)cc3n2)c1Cl (single isomer, unassigned) [Ex-4.234, (3S,4S)(3S,4S) or (3S,4S)(3R,4R) or (3R,4R)(3S,4S) or (3R,4R)(3R,4R) 4-(4-{6-chloro-2-[(5-chloro-1-methyl-1H-pyrazol-4-yl)amino]quinazolin-7-yl}-3-fluoropiperidin-1-yl)-4-methyloxolan-3-ol] | 7.23 | –
19 | Cc1cc(Nc2ncc3cc(Cl)c(C4CCN(C5COCC5O)CC4F)cc3n2)n(C)n1 (single isomer, unassigned) [Ex-4.235, (3S,4S)(3S,4S) or (3S,4S)(3R,4R) or (3R,4R)(3S,4S) or (3R,4R)(3R,4R) 4-(4-{6-chloro-2-[(1,3-dimethyl-1H-pyrazol-5-yl)amino]quinazolin-7-yl}-3-fluoropiperidin-1-yl)oxolan-3-ol] | 8.84 | –
20 | Cc1cc(Nc2ncc3cc(Cl)c(C4CCN(C5COCC5O)CC4F)cc3n2)n(C)n1 (single isomer, unassigned) [Ex-4.236, (3S,4S)(3S,4S) or (3S,4S)(3R,4R) or (3R,4R)(3S,4S) or (3R,4R)(3R,4R) 4-(4-{6-chloro-2-[(1,3-dimethyl-1H-pyrazol-5-yl)amino]quinazolin-7-yl}-3-fluoropiperidin-1-yl)oxolan-3-ol] | 6.61 | –
21 | Cn1ncc(Nc2ncc3cc(Cl)c([C@@H]4CCN([C@@]5(C)COC[C@H]5O)C[C@H]4F)cc3n2)c1Cl (single isomer, unassigned) [Ex-4.238, (3S,4S)(3S,4S) or (3S,4S)(3R,4R) or (3R,4R)(3S,4S) or (3R,4R)(3R,4R) 4-(4-{6-chloro-2-[(5-chloro-1-methyl-1H-pyrazol-4-yl)amino]quinazolin-7-yl}-3-fluoropiperidin-1-yl)-4-methyloxolan-3-ol] | 7.40 | –
22 | Cn1ncc(Nc2ncc3cc(Cl)c([C@@H]4CCN([C@@H]5COC[C@@H]5O)C[C@H]4F)cc3n2)c1C1CC1 (single isomer, unassigned) [Ex-4.239, (3S,4S)(3S,4S) or (3S,4S)(3R,4R) or (3R,4R)(3S,4S) or (3R,4R)(3R,4R) 4-(4-{6-chloro-2-[(5-cyclopropyl-1-methyl-1H-pyrazol-4-yl)amino]quinazolin-7-yl}-3-fluoropiperidin-1-yl)oxolan-3-ol] | >9.20 | –
